Reference: patent publication US20240254129A1, “HETEROCYCLIC COMPOUNDS AND USES THEREOF” (Kumquat Biosciences Inc., priority 2021, published 2024)

Assays:
wildtype Kras / hSOS1 = target: T1, wildtype Kras / hSOS1 (Homo sapiens, UniProt P01116); test: HTRF assay, wildtype Kras / SOS1 interaction; assay type: binding; details: compound nos. 401-703; read-out: IC50 against wildtype Kras
T1 construct: made in house; host or cells: E. coli BL21 (DE3)
Method in brief: (§1)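 Buffer ~5 mM HEPES pH 7.4, ~150 mM NaCl, ~1 mM DTT, 0.05% BSA, 0.0025% Igepal. Cpd in DMSO + Ras/donor mix + SOS1/acceptor mix; ≥10 min; HTRF 665/620 ratio → IC50.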

[1] = target: GST-tagged K-Ras mutant / His-tagged hSOS1 (Homo sapiens, UniProt P01116); test: HTRF assay, K-Ras mutant / SOS1 interaction; assay type: binding; details: compound nos. 401-703; read-out: IC50 against mutant Kras
Chain of GST-tagged K-Ras mutant / His-tagged hSOS1 (P01116 whole entry G12D, form open): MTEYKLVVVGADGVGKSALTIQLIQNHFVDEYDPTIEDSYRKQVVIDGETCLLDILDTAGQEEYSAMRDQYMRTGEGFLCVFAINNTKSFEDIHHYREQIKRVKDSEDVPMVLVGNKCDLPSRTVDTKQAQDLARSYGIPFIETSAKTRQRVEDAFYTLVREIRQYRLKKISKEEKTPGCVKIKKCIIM
Method in brief: as §1

T1 sequence (P01116 1-188 isoform P01116-2): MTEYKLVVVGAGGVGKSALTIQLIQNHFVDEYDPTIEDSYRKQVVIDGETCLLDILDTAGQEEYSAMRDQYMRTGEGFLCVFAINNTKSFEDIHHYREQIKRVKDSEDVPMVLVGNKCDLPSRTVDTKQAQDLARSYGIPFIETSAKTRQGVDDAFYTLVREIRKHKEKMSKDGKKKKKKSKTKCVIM

Row | IC50 (wildtype Kras / hSOS1) | IC50 [1] | Structure (SMILES)
1 | < 500 nM | < 500 nM | Nc1nc2c(-c3c(Cl)cc4c(N5CC6CCC(C5)N6)nc(OCC5(CN6CC[C@H](F)C6)CC5)nc4c3F)ccc(F)c2s1 [Compound 443, 4-(4-(3,8-diazabicyclo-[3.2.1]octan-3-yl)-6-chloro-8-fluoro-2-((1-(((S)-3-fluoropyrrolidin-1-yl)meth-yl)cyclopropyl)methoxy)-quinazolin-7-yl)-7-fluoro-benzo[d]thiazol-2-amine]
2 | < 500 nM | > 500 nM | Nc1ccc(-c2ccccc2-c2c(Cl)cc3c(N4CCCCCC4)nc(OCC45CCCN4CCC5)nc3c2F)cc1 [Compound 450, 2′-(4-(azepan-1-yl)-6-chloro-8-fluoro-2-((tetrahydro-1H-pyrrolizin-7a(5H)-yl)meth-oxy)quinazolin-7-yl)-[1,1′-biphenyl]-4-amine]
3 | < 500 nM | < 500 nM | Nc1nc2c(-c3c(Cl)cc4c(N5CCNCC(F)(F)C5)nc(OCC5(CN6CCCC6)CC5)nc4c3F)ccc(F)c2s1 [Compound 452, 4-(6-chloro-4-(6,6-difluoro-1,4-diazepan-1-yl)-8-fluoro-2-((1-(pyrrolidin-1-ylmeth-yl)cyclopropyl)methoxy)-quinazolin-7-yl)-7-fluoro-benzo[d]thiazol-2-amine]
4 | < 500 nM | < 500 nM | Nc1nc2c(-c3c(Cl)cc4c(N5CC6CCC(C5)O6)nc(OC[C@@]56CCCN5C[C@H](F)C6)nc4c3F)ccc(F)c2s1 [Compound 454, 4-(4-(8-oxa-3-azabicyclo-[3.2.1]octan-3-yl)-6-chloro-8-fluoro-2-(((2R,7aS)-2-fluorotetrahydro-1H-pyrrolizin-7a(5H)-yl)meth-oxy)quinazolin-7-yl)-7-fluorobenzo[d]thiazol-2-amine]
5 | < 500 nM | > 500 nM | Nc1nc2c(-c3c(Cl)cc4c(N5CC6CCC(C5)N6)nc(OCCCN5CCCC5)nc4c3F)ccc(F)c2s1 [Compound 457, 4-(4-(3,8-diazabicyclo-[3.2.1]octan-3-yl)-6-chloro-8-fluoro-2-(3-(pyrrolidin-1-yl)propoxy)quinazolin-7-yl)-7-fluorobenzo[d]thiazol-2-amine]
6 | < 500 nM | < 500 nM | CC(C)CN1CCCN(c2nc(OCC34CCCN3CCC4)nc3c(F)c(-c4ccc(F)c5sc(N)nc45)c(Cl)cc23)CC1 [Compound 460, 4-(6-chloro-8-fluoro-4-(4-isobutyl-1,4-diazepan-1-yl)-2-((tetrahydro-1H-pyrrolizin-7a(5H)-yl)methoxy)quin-azolin-7-yl)-7-fluorobenzo-[d]thiazol-2-amine-]
7 | < 500 nM | < 500 nM | Nc1nc2c(-c3c(Cl)cc4c(N5CCCOC(CO)C5)nc(OCC56CCCN5CCC6)nc4c3F)cccc2s1 (stereo not shown) [Compound 465, (4-(7-(2-aminobenzo[d]-thiazol-4-yl)-6-chloro-8-fluoro-2-((tetrahydro-1H-pyrrolizin-7a(5H)-yl)meth-oxy)quinazolin-4-yl)-1,4-oxazepan-2-yl)methanol]
8 | < 500 nM | < 500 nM | Cc1ccc2sc(N)nc2c1-c1c(Cl)cc2c(N3CC4CCC(C3)N4)nc(OCC34CCCN3CCC4)nc2c1F [Compound 468, 4-(4-(3,8-diazabicyclo-[3.2.1]octan-3-yl)-6-chloro-8-fluoro-2-((tetrahydro-1H-pyrrolizin-7a(5H)-yl)meth-oxy)quinazolin-7-yl)-5-methylbenzo[d]thiazol-2-amine]
9 | < 500 nM | > 500 nM | Cc1ccc(CN)cc1-c1c(Cl)cc2c(N3CC4CCC(C3)N4)nc(OCC34CCCN3CCC4)nc2c1F [Compound 469, (3-(4-(3,8-diazabicyclo-[3.2.1]octan-3-yl)-6-chloro-8-fluoro-2-((tetrahydro-1H-pyrrolizin-7a(5H)-yl)meth-oxy)quinazolin-7-yl)-4-methylphenyl)methanamine]

The next lines start with the molecule.

Row | Structure (SMILES) | IC50 (wildtype Kras / hSOS1) | IC50 [1]
10 | Nc1ccc(-c2ccc(O)cc2-c2c(Cl)cc3c(N4CC5CCC(C4)N5)nc(OCC45CCCN4CCC5)nc3c2F)cc1 [Compound 445, 2-(4-(3,8-diazabicyclo-[3.2.1]octan-3-yl)-6-chloro-8-fluoro-2-((tetrahydro-1H-pyrrolizin-7a(5H)-yl)meth-oxy)quinazolin-7-yl)-4′-amino-[1,1′-biphenyl]-4-ol] | < 500 nM | > 500 nM
11 | CN(C)CC1(COc2nc(N3CC4CCC(C3)N4)c3ccc(-c4cccc5cccc(Cl)c45)c(F)c3n2)CC1 [Compound 447, 1-(1-(((4-(3,8-diazabicyclo-[3.2.1]octan-3-yl)-7-(8-chloronaphthalen-1-yl)-8-fluoroquinazolin-2-yl)oxy)-methyl)cyclopropyl)-N,N-dimethylmethanamine] | < 500 nM | > 500 nM
12 | CO[C@@H]1CN(C)C[C@H]1Oc1nc(N2CC3CCC(C2)N3)c2cc(Cl)c(-c3ccc(F)c4sc(N)nc34)c(F)c2n1 [Compound 448, 4-(4-(3,8-diazabicyclo-[3.2.1]-octan-3-yl)-6-chloro-8-fluoro-2-(((3R,4R)-4-methoxy-1-methylpyrrolidin-3-yl)oxy)quinazolin-7-yl)-7-fluorobenzo[d]thiazol-2-amine] | < 500 nM | < 500 nM
13 | N#CCCc1cc2c(N3CC4CCC(C3)N4)nc(OC[C@@]34CCCN3C[C@H](F)C4)nc2c(F)c1-c1cccc2ccc(F)c(Cl)c12 [Compound 451, 3-(4-(3,8-diazabicyclo-[3.2.1]octan-3-yl)-7-(8-chloro-7-fluoronaphthalen-1-yl)-8-fluoro-2-(((2R,7aS)-2-fluorotetrahydro-1H-pyrrolizin-7a(5H)-yl)meth-oxy)quinazolin-6-yl)pro-panenitrile] | < 500 nM | > 500 nM
14 | CN1CCC[C@H]1COc1nc(N2CCCC(C3CC3)CC2)c2cc(Cl)c(-c3cccc4sc(N)nc34)c(F)c2n1 (stereo partly drawn) [Compound 453, 4-(6-chloro-4-(4-cycloprop-propylazepan-1-yl)-8-fluoro-2-(((S)-1-methylpyrrolidin-2-yl)methoxy)quinazolin-7-yl)benzo[d]thiazol-2-amine] | < 500 nM | > 500 nM
15 | CN1CCC[C@H]1COc1nc(N2CCCCC(C(N)=O)C2)c2cc(Cl)c(-c3cccc4sc(N)nc34)c(F)c2n1 (stereo partly drawn) [Compound 455, 1-(7-(2-aminobenzo[d]-thiazol-4-yl)-6-chloro-8-fluoro-2-(((S)-1-methylpyr-rolidin-2-yl)methoxy)quin-zolin-4-yl)azepane-3-carboxamide] | < 500 nM | < 500 nM
16 | Nc1ccc(C2CC2)c(-c2ccc3c(N4CC5CCC(C4)N5)nc(OC[C@@]45CCCN4C[C@H](F)C5)nc3c2F)n1 [Compound 458, 6-(4-(3,8-diazabicyclo-[3.2.1]octan-3-yl)-8-fluoro-2-(((2R,7aS)-2-fluorotetra-hydro-1H-pyrrolizin-7a(5H)-yl)methoxy)quinazolin-7-yl)-5-cyclopropylpyridin-2-amine] | < 500 nM | > 500 nM
17 | CN1CCC[C@H]1COc1nc(N2CCCC(F)C(F)(F)C2)c2cc(Cl)c(-c3cccc4sc(N)nc34)c(F)c2n1 (stereo partly drawn) [Compound 459, 4-(6-chloro-8-fluoro-2-(((S)-1-methylpyrrolidin-2-yl)-methoxy)-4-(3,3,4-trifluoro-azepan-1-yl)quinazolin-7-yl)benzo[d]thiazol-2-amine] | < 500 nM | < 500 nM
18 | Cc1ncc(Oc2nc(N3CCCCCC3)c3cc(Cl)c(-c4cccc5sc(N)nc45)c(F)c3n2)cn1 [Compound 461, 4-(4-(azepan-1-yl)-6-chloro-8-fluoro-2-((2-methylpyrim-idin-5-yl)oxy)quinazolin-7-yl)benzo[d]thiazol-2-amine] | < 500 nM | > 500 nM
19 | Cc1ccc2oc(N)nc2c1-c1c(Cl)cc2c(N3CCNCC(F)(F)C3)nc(OC[C@@H]3CCCN3C)nc2c1F [Compound 462, 4-(6-chloro-4-(6,6-difluoro-1,4-diazepan-1-yl)-8-fluoro-2-(((S)-1-methylpyrrolidin-2-yl)methoxy)quinazolin-7-yl)-5-methylbenzo[d]oxazol-2-amine] | < 500 nM | < 500 nM
20 | Cc1ccc2oc(N)nc2c1-c1c(Cl)cc2c(N3CCNCC(F)(F)C3)nc(OC[C@@]34CCCN3C[C@H](F)C4)nc2c1F [Compound 463, 4-(6-chloro-4-(6,6-difluoro-1,4-diazepan-1-yl)-8-fluoro-2-(((2R,7aS)-2-fluorotetra-hydro-1H-pyrrolizin-7a(5H)-yl)methoxy)quinazolin-7-yl)-5-methylbenzo[d]oxazol-2-amine] | < 500 nM | < 500 nM
21 | N#CCCc1cc2c(N3CC4CCC(C3)N4)nc(OC[C@@]34CCCN3C[C@H](F)C4)nc2c(F)c1-c1ccc(F)c2sc(N)c(C#N)c12 [Compound 464, 4-(4-(3,8-diazabicyclo-[3.2.1]octan-3-yl)-6-(2-cyanoethyl)-8-fluoro-2-(((2R,7aS)-2-fluorotetra-hydro-1H-pyrrolizin-7a(5H)-yl)methoxy)quin-azolin-7-yl)-2-amino-7-fluorobenzo[b]thiophene-3-carbonitrile] | < 500 nM | < 500 nM
22 | CN1CCC[C@H]1COc1nc(N2CCC(O)C(F)CC2)c2cc(Cl)c(-c3cccc4sc(N)nc34)c(F)c2n1 (stereo partly drawn) [Compound 466, 1-(7-(2-aminobenzo[d]-thiazol-4-yl)-6-chloro-8-fluoro-2-(((S)-1-methylpyr-rolidin-2-yl)methoxy)quin-azolin-4-yl)-5-fluoroazepan-4-ol] | < 500 nM | < 500 nM
23 | Fc1c(N2CCCc3cccc(Cl)c32)cc(Cl)c2c(N3CCCCCC3)nc(OCC34CCCN3CCC4)nc12 [Compound 467, 4-(azepan-1-yl)-5-chloro-7-(8-chloro-3,4-dihydroquin-olin-1(2H)-yl)-8-fluoro-2-((tetrahydro-1H-pyrrolizin-7a(5H)-yl)methoxy)quin-azoline] | < 500 nM | > 500 nM
